Three molecules from patent US20090203010A1, “MSMB-gene based diagnosis, staging and prognosis of prostate cancer” (Katholieke Universiteit Leuven, K.U. Leuven R&D, priority 2008, published 2009) can be followed below.

Holding throughout (assay type): cell-based, Human
For assay [1], the system named is MSMB gene. The assay is described as follows: Quantitative RT-PCR of the MSMB transcript level in PC-3 cells. The protocol: (a) The relative amounts of EZH2 (left panel) and MSMB transcripts (right panel) in the indicated prostate cell lines were determined by quantitative RT-PCR with intron-spanning primers. Human prostate PC-3 cells (adenocarcinoma), LNCaP cells (carcinoma) and DU 145 cells (carcinoma) were cultured as monolayers in 50% Dulbecco's modified Eagle's medium (DMEM) and 50% Ham's F12, RPMI1640 and DMEM, respectively, supplemented with 10% fetal calf serum. PZ-HPV-7 cells, an immortalized cell line derived from normal human prostate cells, were cultured in keratinocyte-serum free medium supplemented with 5 ng/ml human recombinant epidermal growth factor and 0.05 mg/ml bovine pituitary extract. Total RNA was isolated using the Genelute Mammalian Total RNA Miniprep kit (Sigma, St. Louis, Mo., USA). A total of […] RNA was reverse-transcribed with oligo dT primer (Sigma) and the M-MulV reverse transcriptase (Fermentas GMBH, St. Leon-Rot, Germany). cDNA (1.5%) was analyzed by real-time PCR in triplicate using a Platinum SYBR Green qPCR SuperMix-UDG (Invitrogen, Paisly, UK) in a Rotorgene detection system (Corbett Research, Cambridge, UK) and normalized to the housekeeping gene hypoxanthine-guanine-phosphoribosyl-transferase (HPRT). […] The DNA was recovered with the Genelute PCR clean-up kit (Sigma) and analyzed by real-time PCR. […] The enrichment of DNA was calculated using the formula:fold enrichment=^2(CtlgG-CtAb), where Ct is the threshold cycle, IgG is the normal rabbit IgG and Ab is the specific antibody.
FIG. 2 concerns how EZH2 is recruited to the MSMB gene and causes trimethylation of H3K27. […] (b) Immunoblotting (upper panel) and quantitative RT-PCR analysis (lower panel) of PC-3 cell lysates, obtained after transfection with either a control siRNA (Ctr), that is, a scrambled version of a siRNA duplex for the housekeeping gene PPP1R8 ([…] (SEQ ID NO:71), Invitrogen) or an EZH2 siRNA (KD; […] (SEQ ID NO:72), Dharmacon, Chicago, Ill., USA). […] SIPP1 served as a loading control for the immunoblotting and ACTIN was used as control for normalization in the quantitative RT-PCR. […]

In assay [2] the test system is EZH2. The assay is described as follows: Quantitative RT-PCR of the EZH2 transcript level in PC-3 cells. The protocol:
(§1) (a) The relative amounts of EZH2 (left panel) and MSMB transcripts (right panel) in the indicated prostate cell lines were determined by quantitative RT-PCR with intron-spanning primers. Human prostate PC-3 cells (adenocarcinoma), LNCaP cells (carcinoma) and DU 145 cells (carcinoma) were cultured as monolayers in 50% Dulbecco's modified Eagle's medium (DMEM) and 50% Ham's F12, RPMI1640 and DMEM, respectively, supplemented with 10% fetal calf serum. PZ-HPV-7 cells, an immortalized cell line derived from normal human prostate cells, were cultured in keratinocyte-serum free medium supplemented with 5 ng/ml human recombinant epidermal growth factor and 0.05 mg/ml bovine pituitary extract. […] A total of 1-5 mg RNA was reverse-transcribed with oligo dT primer (Sigma) and the M-MulV reverse transcriptase (Fermentas GMBH, St. Leon-Rot, Germany). cDNA (1.5%) was analyzed by real-time PCR in triplicate using a Platinum SYBR Green qPCR SuperMix-UDG (Invitrogen, Paisly, UK) in a Rotorgene detection system (Corbett Research, Cambridge, UK) and normalized to the housekeeping gene hypoxanthine-guanine-phosphoribosyl-transferase (HPRT). […] The DNA was recovered with the Genelute PCR clean-up kit (Sigma) and analyzed by real-time PCR. […]
(§2) FIG. 2 concerns how EZH2 is recruited to the MSMB gene and causes trimethylation of H3K27. […] The enrichment on MSMB is expressed as a %±s.e. of the control value (n=3-4). […]

For assay [3], the system named is CpG island in the promoter region of the MSMB gene. In words: DNA bisulfite sequencing of the MSMB CpG island in PC-3 cells. Conditions: following addition of the DNA methyltransferase inhibitor. The protocol: (a) PC-3 cells were treated for 48 hours with […] of the DNA methyltransferase inhibitor […]. Subsequently, the steady-state levels of the MSMB and EZH2 transcripts were determined by quantitative RT-PCR analysis with intron-spanning primers specific for the indicated genes. The data were expressed relative to the transcript level in the control condition. HPRT was used as a control for normalization. (b) A schematic representation of the MSMB gene on scale. The four exons are indicated by the black boxes and the two analyzed CpG regions by black stars. TSS, transcriptional start site. Methylated CG dinucleotides are denoted underneath by closed circles and unmethylated CGs by open circles. Genomic DNA of PC-3 cells or LNCaP cells was purified with the GenElute Mammalian Genomic DNA Miniprep kit of Sigma. Two microgram was digested overnight with BglII. The DNA was denatured with 0.3 M NaOH at […] for 30 minutes. Sodium bisulfite (3.3 M) and hydroquinone (0.5 mM) were added to the DNA and the mixture was incubated overnight at 55° C.
The DNA was purified with the PCR purification kit of Sigma, St Louis, Mo., USA. The DNA was desulfonated with […] for 15 minutes at 37° C. and precipitated by adding NH4Ac and ethanol. The pellet was air-dried and dissolved in 10 mM Tris and 1 mM ethylene-diaminete-traacetic acid at pH 8. […]

The subject of assay [4] is H3K27 trimethylation of the MSMB gene. In words: ChIP with anti-H3K27me3 antibodies on the MSMB gene in PC-3 cells. Conditions: 48 hours after siRNA transfection. The protocol: as §1, §2
Assay [5] deals with EZH2 association with the MSMB gene. The assay is described as follows: ChIP with anti-EZH2 antibodies on the MSMB gene in PC-3 cells. The conditions noted are these: 48 hours, loss only evident in intron 1 (primer sets 3 and 4). Here is the method:
as §1, §2

For assay [6], the system named is PPP1R8. The assay is described as follows: Quantitative RT-PCR of the housekeeping gene PPP1R8 transcript in PC-3 cells. Conditions: siRNA transfection 48 hours. Here is the method: FIG. 2 concerns how EZH2 is recruited to the MSMB gene and causes trimethylation of H3K27. (a) ChIP assays were performed in PC-3 cells using rabbit antibodies against a synthetic peptide of human EZH2 (E. Viré et al. (2006), Nature 439:871-874), trimethylated H3K27 (Upstate), trimethylated H3K9 (Upstate) and control IgGs. […] (b) Immunoblotting (upper panel) and quantitative RT-PCR analysis (lower panel) of PC-3 cell lysates, obtained after transfection with either a control siRNA (Ctr), that is, a scrambled version of a siRNA duplex for the housekeeping gene PPP1R8 ([…] (SEQ ID NO:71), Invitrogen) or an EZH2 siRNA (KD; […] (SEQ ID NO:72), Dharmacon, Chicago, Ill., USA). The PC-3 cells were plated at 1.2×10^6 cells in a 10 cm plate. At 24 hours after plating, the cells were transfected with 300 nM of siRNA duplex using Lipofectamine 2000 (Invitrogen). At 48 hours after transfection, the cells were harvested. SIPP1 served as a loading control for the immunoblotting and ACTIN was used as control for normalization in the quantitative RT-PCR. […] The immunoprecipitated DNA was analyzed by quantitative PCR using primers specific for the MSMB gene (FIG. 1, Panel b). The enrichment on MSMB is expressed as a %±s.e. of the control value (n=3-4). […]

Consider `CC(/C=C/C(=O)NO)=C\[C@@H](C)C(=O)c1ccc(N(C)C)cc1` [TSA, trichostatin A], for which the “increase of the MSMB transcript level” value in assay [1] (TSA 50 ng/ml for nine hours, relative to control condition) is “six”. Also, the “expression level of EZH2” value in assay [2] (TSA 50 ng/ml for nine hours) is on record as “did not affect”.

Turning to `Nc1ncn([C@@H]2O[C@H](CO)[C@@H](O)[C@H]2O)c(=O)n1` [50-azacytidine], the “reactivation of the MSMB gene” value in assay [1] is given as “reactivated”. In addition, the “methylation of the CpG island in the promoter region (upstream CpG island) of the MSMB gene” value in assay [3] is listed as “decreased”; in assay [3] (listed as 5′ azacytidine), “decreased methylation”.

With “AAGACUCUGAAUGCAGUUGCU (SEQ ID NO:72) [EZH2 siRNA]”, the “increase in the expression of MSMB” value in assay [1] (siRNA transfection 48 hours, relative to control siRNA) is listed as “three”. For the same molecule, the “knockdown of the EZH2 transcript” value in assay [2] (siRNA transfection 48 hours) is listed as “about 70%”. Besides, in assay [4], the “H3K27 trimethylation of the MSMB gene in intron 1 (ChIP)” value is recorded as “loss of H3K27 trimethylation”. Moreover, the “EZH2 associated with the MSMB gene (ChIP)” value in assay [5] is reported as “less EZH2 was associated”. Besides, the “transcript level of control housekeeping gene PPP1R8” value in assay [6] is “not affected”.
